The term inhibition denotes the drop in the measured response relative to a control, in per cent.

Structures can show the parent of a compound that is named as a salt.

Sequence of S. aureus GyrB ATPase (P0A0K8 whole entry): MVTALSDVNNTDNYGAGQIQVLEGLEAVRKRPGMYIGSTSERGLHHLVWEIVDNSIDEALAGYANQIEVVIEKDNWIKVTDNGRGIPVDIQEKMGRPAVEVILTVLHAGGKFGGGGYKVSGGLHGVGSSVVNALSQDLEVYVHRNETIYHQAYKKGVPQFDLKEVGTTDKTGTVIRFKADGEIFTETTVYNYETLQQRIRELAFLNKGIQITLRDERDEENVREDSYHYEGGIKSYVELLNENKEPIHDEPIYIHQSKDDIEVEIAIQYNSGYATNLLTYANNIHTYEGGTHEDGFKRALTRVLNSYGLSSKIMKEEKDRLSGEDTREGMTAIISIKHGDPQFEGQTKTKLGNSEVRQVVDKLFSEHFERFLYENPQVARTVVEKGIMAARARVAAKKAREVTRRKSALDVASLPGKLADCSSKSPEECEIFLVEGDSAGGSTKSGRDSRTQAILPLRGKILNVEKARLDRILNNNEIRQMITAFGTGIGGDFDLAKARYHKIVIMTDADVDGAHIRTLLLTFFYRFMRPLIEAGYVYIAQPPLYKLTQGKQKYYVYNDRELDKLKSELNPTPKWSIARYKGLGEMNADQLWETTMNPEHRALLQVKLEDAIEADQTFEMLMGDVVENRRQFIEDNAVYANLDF
Sequence of S. aureus GyrB ATPase (P0AES4 whole entry, further chain): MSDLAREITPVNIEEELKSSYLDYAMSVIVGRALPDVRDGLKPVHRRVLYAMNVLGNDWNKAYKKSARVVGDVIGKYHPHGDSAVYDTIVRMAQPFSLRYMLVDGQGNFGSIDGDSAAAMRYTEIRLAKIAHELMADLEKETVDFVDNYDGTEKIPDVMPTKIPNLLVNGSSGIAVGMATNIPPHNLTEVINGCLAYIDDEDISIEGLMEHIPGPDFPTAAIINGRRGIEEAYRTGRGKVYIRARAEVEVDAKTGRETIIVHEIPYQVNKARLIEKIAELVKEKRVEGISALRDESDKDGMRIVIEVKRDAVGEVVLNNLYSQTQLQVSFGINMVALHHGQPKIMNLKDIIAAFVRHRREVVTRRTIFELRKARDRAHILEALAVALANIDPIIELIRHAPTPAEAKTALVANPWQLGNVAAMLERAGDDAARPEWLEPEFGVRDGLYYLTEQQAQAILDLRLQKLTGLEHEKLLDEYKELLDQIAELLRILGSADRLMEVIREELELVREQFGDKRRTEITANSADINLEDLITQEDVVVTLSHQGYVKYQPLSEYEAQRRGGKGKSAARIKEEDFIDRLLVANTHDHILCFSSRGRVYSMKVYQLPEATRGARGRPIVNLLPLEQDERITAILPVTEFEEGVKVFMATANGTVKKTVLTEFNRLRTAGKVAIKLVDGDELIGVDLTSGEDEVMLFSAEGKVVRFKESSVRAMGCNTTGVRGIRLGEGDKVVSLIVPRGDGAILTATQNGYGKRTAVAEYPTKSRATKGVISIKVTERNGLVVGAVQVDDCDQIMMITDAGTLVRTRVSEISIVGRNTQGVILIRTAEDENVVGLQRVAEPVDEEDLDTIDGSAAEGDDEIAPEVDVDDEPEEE

This assay deals with S. aureus GyrB ATPase (Staphylococcus aureus, UniProt P0A0K8). The experiment in a line: biochemical. To be noted: compound at 1 μM; one value per test if tested more than once; read-out: % Inhibition of S. aureus GyrB ATPase. The method in brief:
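IC50 values derive from 10-point titrations of compound (in DMSO). Phosphate formed from 250 μM ATP was quantified by acidic molybdate/malachite green after quenching.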
Consider `CCNC(=O)Nc1cc(-c2nc(C(F)(F)F)cs2)c(-c2ccc3c(=O)c(C(=O)NCCN4CCN(C)CC4)cn(CC)c3c2)cn1` [Example 334, 1-Ethyl-7-{6-[(ethylcarbamoyl)amino]-4-[4-(trifluoromethyl)-1,3-thiazol-2-yl]pyridin-3-yl}-N-[2-(4-methylpiperazin-1-yl)ethyl]-4-oxo-1,4-dihydroquinoline-3-carboxamide], for which the inhibition at 1 µM was 95%.

With `CCCNC(=O)Nc1cc(-c2nc(C(F)(F)F)cs2)c(-c2ccc3c(c2)c(=O)c(C(=O)N2CCNCC2)cn3C2CN(C)C2)cn1` [Example 166, 1-(5-(1-(1-methylazetidin-3-yl)-4-oxo-3-(piperazine-1-carbonyl)-1,4-dihydroquinolin-6-yl)-4-(4-(trifluoromethyl)thiazol-2-yl)pyridin-2-yl)-3-propylurea], the inhibition at 1 µM is 104%.

For `CCNC(=O)Nc1cc(-c2nc(C(F)(F)F)cs2)c(-c2ccc3c(=O)c(C(=O)NCCN4CCN(C)CC4)cn(Cc4cccnc4)c3c2)cn1` [Example 362, 7-{6-[(ethylcarbamoyl)amino]-4-[4-(trifluoromethyl)-1,3-thiazol-2-yl]pyridin-3-yl}-N-[2-(4-methylpiperazin-1-yl)ethyl]-4-oxo-1-(pyridin-3-ylmethyl)-1,4-dihydroquinoline-3-carboxamide], the inhibition at 1 µM is 94%.

For `CCNC(=O)Nc1cc(-c2nc(C(F)(F)F)cs2)c(-c2ccc3c(c2)c(=O)c(C(=O)O)cn3C[C@@H]2CCCN(C)C2)cn1` [Example 247, (R)-6-(6-(3-ethylureido)-4-(4-(trifluoromethyl)thiazol-2-yl)pyridin-3-yl)-1-((1-methylpiperidin-3-yl)methyl)-4-oxo-1,4-dihydroquinoline-3-carboxylic acid], the inhibition at 1 µM came out at 115%.

With `CCNC(=O)Nc1cc(-c2nc(C(F)(F)F)cs2)c(-c2ccc3c(c2)c(=O)c(C(=O)O)cn3[C@@H](CO)Cc2ccc(O)cc2)cn1` [Example 77, (R)-6-(6-(3-ethylureido)-4-(4-(trifluoromethyl)thiazol-2-yl)pyridin-3-yl)-1-(1-hydroxy-3-(4-hydroxyphenyl)propan-2-yl)-4-oxo-1,4-dihydroquinoline-3-carboxylic acid], the inhibition at 1 µM is 110%.

As to `CCNC(=O)Nc1cc(-c2nc(C(F)(F)F)cs2)c(-c2cc3c4c(c2)c(=O)c(C(=O)OCC)cn4CCO3)cn1` [Example 48, ethyl 9-(6-(3-ethylureido)-4-(4-trifluoromethylthiazol-2-yl)pyridin-3-yl)-7-oxo-3,7-dihydro-2H-[1,4]oxazino[2,3,4-ij]quinoline-6-carboxylate], the inhibition at 1 µM is 106%.

As to `CC(C)NC(=O)Nc1cc(-c2nc(C(F)(F)F)cs2)c(-c2ccc3c(c2)c(=O)c(C(=O)NCCO)cn3CCN2CCN(C)CC2)cn1` [Example 212], the inhibition at 1 µM turned out to be 94%.

For the molecule `CCCNC(=O)Nc1cc(-c2nc(C(F)(F)F)cs2)c(-c2ccc3c(c2)c(=O)c(C(=O)N2CCN(S(C)(=O)=O)CC2)cn3C2CN(C)C2)cn1` [Example 170, 1-(5-(1-(1-methylazetidin-3-yl)-3-(4-(methylsulfonyl)piperazine-1-carbonyl)-4-oxo-1,4-dihydroquinolin-6-yl)-4-(4-(trifluoromethyl)thiazol-2-yl)pyridin-2-yl)-3-propylurea], the inhibition at 1 µM came out at 102%.

As to `CCNC(=O)Nc1cc(-c2nc(C(F)(F)F)cs2)c(-c2ccc3c(=O)c(C(=O)NC)cn(CC(C)C)c3c2)cn1` [Example 341, 7-{6-[(ethylcarbamoyl)amino]-4-[4-(trifluoromethyl)-1,3-thiazol-2-yl]pyridin-3-yl}-N-methyl-1-(2-methylpropyl)-4-oxo-1,4-dihydroquinoline-3-carboxamide], the inhibition at 1 µM was found to be 99%.

On to `CCCNC(=O)Nc1cc(-c2nc(C(F)(F)F)cs2)c(-c2ccc3c(c2)c(=O)c(C(=O)NCCN(C)C)cn3CCN(C)C)cn1` [Example 219, N,1-bis(2-(dimethylamino)ethyl)-4-oxo-6-(6-(3-propylureido)-4-(4-(trifluoromethyl)thiazol-2-yl)pyridin-3-yl)-1,4-dihydroquinoline-3-carboxamide], for which the inhibition at 1 µM amounted to 86%.

In the case of `CCNC(=O)Nc1cc(-c2nc(C(F)(F)F)cs2)c(-c2ccc3c(=O)c(C(=O)NCCCO)cn(CC(C)C)c3c2)cn1` [Example 343, 7-{6-[(ethylcarbamoyl)amino]-4-[4-(trifluoromethyl)-1,3-thiazol-2-yl]pyridin-3-yl}-N-(3-hydroxypropyl)-1-(2-methylpropyl)-4-oxo-1,4-dihydroquinoline-3-carboxamide], the inhibition at 1 µM was 98%.

For `CCCNC(=O)Nc1cc(-c2nc(C(F)(F)F)cs2)c(-c2ccc3c(c2)c(=O)c(C(=O)O)cn3CCC2CCN(C)CC2)cn1` [Example 198, 1-(2-(1-methylpiperidin-4-yl)ethyl)-4-oxo-6-(6-(3-propylureido)-4-(4-(trifluoromethyl)thiazol-2-yl)pyridin-3-yl)-1,4-dihydroquinoline-3-carboxylic acid], the inhibition at 1 µM worked out at 108%.

In the case of `CCNC(=O)Nc1cc(-c2nc(C(F)(F)F)cs2)c(-c2ccc3c(c2)c(=O)c(C(=O)O)cn3C2CCCN(Cc3ccncc3)C2)cn1` (stereo not drawn) [Example 309, 6-(6-(3-ethylureido)-4-(4-(trifluoromethyl)thiazol-2-yl)pyridin-3-yl)-4-oxo-1-(1-(pyridin-4-ylmethyl)piperidin-3-yl)-1,4-dihydroquinoline-3-carboxylic acid], the inhibition at 1 µM is 109%.

In the case of `CCNC(=O)Nc1cc(-c2nc(CC)cs2)c(-c2ccc3c(c2)c(=O)c(C(=O)O)cn3CC)cn1` [Example 13, 1-ethyl-6-(6-(3-ethylureido)-4-(4-ethylthiazol-2-yl)pyridin-3-yl)-4-oxo-1,4-dihydroquinoline-3-carboxylic acid], the inhibition at 1 µM turned out to be 98%.

Take `CCNC(=O)Nc1cc(-c2nc(C(F)(F)F)cs2)c(-c2ccc3c(=O)c(C(=O)NCCN(C)C)cn(CCC(C)C)c3c2)cn1` [Example 338, N-[2-(dimethylamino)ethyl]-7-{6-[(ethylcarbamoyl)amino]-4-[4-(trifluoromethyl)-1,3-thiazol-2-yl]pyridin-3-yl}-1-(3-methylbutyl)-4-oxo-1,4-dihydroquinoline-3-carboxamide]: the inhibition at 1 µM came out at 99%.

With `CCNC(=O)Nc1cc(-c2nc(C(F)(F)F)cs2)c(-c2ccc3c(c2)c(=O)c(C(=O)N2CCN(C)CC2)cn3CCN(C)C)cn1` [Example 155, 1-(5-(1-(2-(dimethylamino)ethyl)-3-(4-methylpiperazine-1-carbonyl)-4-oxo-1,4-dihydroquinolin-6-yl)-4-(4-(trifluoromethyl)thiazol-2-yl)pyridin-2-yl)-3-ethylurea], the inhibition at 1 µM turned out to be 94%.

On to `CC(C)NC(=O)Nc1cc(-c2nc(C(F)(F)F)cs2)c(-c2ccc3c(c2)c(=O)c(C(=O)O)cn3CCN2CCOCC2)cn1` [Example 195, 6-(6-(3-isopropylureido)-4-(4-(trifluoromethyl)thiazol-2-yl)pyridin-3-yl)-1-(2-morpholinoethyl)-4-oxo-1,4-dihydroquinoline-3-carboxylic acid], for which the inhibition at 1 µM was 98%.

For the molecule `CCNC(=O)Nc1cc(-c2nc(C(F)(F)F)cs2)c(-c2ccc3c(c2)c(=O)c(C(=O)O)cn3CCO)cn1` [Example 19, 6-(6-(3-Ethylureido)-4-(4-(trifluoromethyl)thiazol-2-yl)pyridin-3-yl)-1-(2-hydroxyethyl)-4-oxo-1,4-dihydroquinoline-3-carboxylic acid], the inhibition at 1 µM stood at 98%.

Consider `CCNC(=O)Nc1cc(-c2nc(C(F)(F)F)cs2)c(-c2ccc3c(c2)c(=O)c(C(=O)O)cn3C2CCCN(C)C2)cn1` (stereo not drawn) [Example 311, 6-(6-(3-ethylureido)-4-(4-(trifluoromethyl)thiazol-2-yl)pyridin-3-yl)-1-(1-methylpiperidin-3-yl)-4-oxo-1,4-dihydroquinoline-3-carboxylic acid], for which the inhibition at 1 µM is 100%.

In the case of `CCCNC(=O)Nc1cc(-c2nc(C(F)(F)F)cs2)c(-c2ccc3c(c2)c(=O)c(C(=O)O)cn3[C@H](CO)CC(C)C)cn1` [Example 87, (S)-1-(1-hydroxy-4-methylpentan-2-yl)-4-oxo-6-(6-(3-propylureido)-4-(4-(trifluoromethyl)thiazol-2-yl)pyridin-3-yl)-1,4-dihydroquinoline-3-carboxylic acid], the inhibition at 1 µM is 96%.

`CCNC(=O)Nc1cc(-c2nc(C(F)(F)F)cs2)c(-c2ccc3c(c2)c(=O)c(C(=O)O)cn3CC2CCN(C)CC2)cn1` [Example 94, 6-(6-(3-ethylureido)-4-(4-(trifluoromethyl)thiazol-2-yl)pyridin-3-yl)-1-((1-methylpiperidin-4-yl)methyl)-4-oxo-1,4-dihydroquinoline-3-carboxylic acid]: the inhibition at 1 µM came out at 95%.

Consider `CC(C)NC(=O)Nc1cc(-c2nc(C(F)(F)F)cs2)c(-c2ccc3c(c2)c(=O)c(C(=O)O)cn3CCC2CCOCC2)cn1` [Example 197, 7-(6-(3-isopropylureido)-4-(4-(trifluoromethyl)thiazol-2-yl)pyridin-3-yl)-4-oxo-1-(2-(tetrahydro-2H-pyran-4-yl)ethyl)-1,4-dihydroquinoline-3-carboxylate], for which the inhibition at 1 µM came out at 116%.

For `CCNC(=O)Nc1cc(-c2nc(C(F)(F)F)cs2)c(-c2ccc3c(c2)c(=O)c(C(=O)O)cn3CC2CCCCN2C)cn1` (stereo not drawn) [Example 127, 6-(6-(3-ethylureido)-4-(4-(trifluoromethyl)thiazol-2-yl)pyridin-3-yl)-1-((1-methylpiperidin-2-yl)methyl)-4-oxo-1,4-dihydroquinoline-3-carboxylic acid, formic acid salt], the inhibition at 1 µM is 117%.

For the molecule `CCNC(=O)Nc1cc(-c2nc(C(F)(F)F)cs2)c(-c2ccc3c(=O)c(C(=O)NC)cn(CC4CC4)c3c2)cn1` [Example 374, 1-(Cyclopropylmethyl)-7-{6-[(ethylcarbamoyl)amino]-4-[4-(trifluoromethyl)-1,3-thiazol-2-yl]pyridin-3-yl}-N-methyl-4-oxo-1,4-dihydroquinoline-3-carboxamide], the inhibition at 1 µM stood at 86%.
